Assay results published in PubChem BioAssay AID652166 (The Scripps Research Institute Molecular Screening Center, 2013).
Calls of active or inactive are those of the source. The rule behind the calls is not given here.

Each compound was assayed on NOD2-RIPK2 signaling cell assay, absorbance 620 nm (assay: cellular NOD2-RIPK2 pathway inhibition potency – cell-based, absorbance 620 nm, late-stage follow-up (AID 652166)).
For Cc1ccc(S(=O)(=O)N2CCCCCC2)cc1[N+](=O)[O-], the IC50 was > 10 µM (inactive).
In the case of Cc1ccc(C(C[N+](=O)[O-])n2nc(C)cc2C)cc1 (stereo unspecified), the IC50 is reported as > 10 µM (inactive).
In the case of O=[N+]([O-])c1cccc(S(=O)(=O)N2CCCCCC2)c1, the IC50 is reported as > 10 µM (inactive).
For Cc1cc(S(=O)(=O)N2CCCCCC2)ccc1F, the IC50 was > 10 µM (inactive).
With O=S(=O)(c1ccc(F)cc1)N1CCCCCC1 the IC50 was > 10 µM (inactive).
With Cc1ncc([N+](=O)[O-])n1Cc1ccc(Cl)c(Cl)c1 the IC50 was > 10 µM (inactive).
In the case of Cc1nc([N+](=O)[O-])c(Br)n1Cc1ccc(Cl)c(Cl)c1, the IC50 is reported as > 10 µM (inactive).
O=S(=O)(c1ccccc1)N1CCCCCC1 was tested, and the IC50 was > 10 µM (inactive).
In the case of O=[N+]([O-])c1cc(S(=O)(=O)N2CCCCCC2)ccc1F, the IC50 is reported as > 10 µM (inactive).
For COc1ccc(C(C[N+](=O)[O-])n2nc(C)cc2C)cc1 (stereo unspecified), the IC50 was > 10 µM (inactive).
Cc1nc([N+](=O)[O-])c(Br)n1Cc1ccccc1 was tested, and the IC50 was > 10 µM (inactive).
